Measurements: patent publication US20230312550A1, “N-(2-(4-CYANOTHIAZOLIDIN-3-YL)-2-OXOETHYL)-QUINOLINE-4-CARBOXAMIDES” (AstraZeneca AB, priority 2020, published 2023)
≈ marks a conversion by molar mass, not a printed value.

Tests used:
[1] = biological target: human Fibroblast activation protein alpha (hFAP) (Homo sapiens (Human), UniProt Q12884); experiment: hFAP inhibition assay (tight binders); type: biochemical; settings: Ala-Pro-AMC 20 μM, n = 1 or geometric mean n = 2-6; also: hFAP 2.4 pM
Protocol: The plates were read on a PHERAstar® reader with excitation 340 nm and emission 460 nm. Data were analyzed in Genedata Screener®. IC50 values were determined by plotting % inhibition versus log compound concentration and using a one site dose response model.

hFAP (M39-A757) = hFAP (M39-A757) (Homo sapiens (Human), UniProt Q12884); experiment: hFAP binding assay (surface plasmon resonance); settings: SPR, 20° C.; for hFAP Binding assay k(off) / hFAP Binding assay k(on): single cycle kinetics; for Kd: n = 1 or geometric mean n = 2-4
[2] = biological target: Prolyl endopeptidase, Prolyl Oligopeptidase (hPREP) (Homo sapiens (Human), UniProt P48147); experiment: hPrep inhibition assay; type: biochemical; settings: hPREP 0.6 nM, Z-Gly-Pro-amino-methylcoumarin 50 μM; read-out: PREP IC50
How it was run: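 Recombinant human PREP at 0.6 nM final with Z-Gly-Pro-AMC substrate at 50 μM final in Tris-HCl pH 7.5, NaCl, Triton X-100, glutathione; 15 min rt preincubation then 20 min rt reaction in dark. AMC fluorescence (ex 340/em 460 nm); IC50 from one-site dose-response fit of % inhibition.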

Kinetic solubility = settings: kinetic from dmso stock
Protocol: Kinetic solubility was measured as described in Comput Aided Mol Des 2015, 29, 795.

Caco-2 cell permeability = settings: human
Protocol: Caco-2 cell permeability was measured as described in Mol Pharm 2017, 14, 1601.

[3] = Metabolic stability in rat hepatocytes (rHep); settings: n = 1 or geometric mean of n = 2-3
[4] = Metabolic stability in human liver microsomes (HLM); settings: human
Protocol: Metabolic stability in HLM was measured as described in J Comput Aided Mol Des 2015, 29, 795.

[5] = Solubility, kinetic solubility, n = 1 or average of n = 2-3
[6] = HLM CLint, n = 1 or average of n = 2-3

human Fibroblast activation protein alpha (hFAP), sequence (Q12884 38-760): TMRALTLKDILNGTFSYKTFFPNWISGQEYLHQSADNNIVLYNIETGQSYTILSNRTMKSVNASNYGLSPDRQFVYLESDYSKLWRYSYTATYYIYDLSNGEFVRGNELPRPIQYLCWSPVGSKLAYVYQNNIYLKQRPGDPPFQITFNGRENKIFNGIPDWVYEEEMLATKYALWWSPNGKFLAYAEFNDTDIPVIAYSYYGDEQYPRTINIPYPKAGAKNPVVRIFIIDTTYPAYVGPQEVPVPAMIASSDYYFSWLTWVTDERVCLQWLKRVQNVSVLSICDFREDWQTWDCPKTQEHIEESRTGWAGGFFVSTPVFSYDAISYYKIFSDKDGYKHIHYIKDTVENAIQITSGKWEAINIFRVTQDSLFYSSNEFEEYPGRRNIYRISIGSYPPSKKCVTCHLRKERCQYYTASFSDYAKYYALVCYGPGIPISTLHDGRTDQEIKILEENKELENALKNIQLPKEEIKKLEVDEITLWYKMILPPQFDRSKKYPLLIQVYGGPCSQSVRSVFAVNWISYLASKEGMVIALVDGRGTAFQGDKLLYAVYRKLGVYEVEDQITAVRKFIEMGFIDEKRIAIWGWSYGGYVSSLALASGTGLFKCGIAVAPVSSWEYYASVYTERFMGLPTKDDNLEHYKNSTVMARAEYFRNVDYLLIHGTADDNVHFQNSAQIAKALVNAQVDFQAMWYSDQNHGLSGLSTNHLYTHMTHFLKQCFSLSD
hFAP (M39-A757), sequence (Q12884 39-757): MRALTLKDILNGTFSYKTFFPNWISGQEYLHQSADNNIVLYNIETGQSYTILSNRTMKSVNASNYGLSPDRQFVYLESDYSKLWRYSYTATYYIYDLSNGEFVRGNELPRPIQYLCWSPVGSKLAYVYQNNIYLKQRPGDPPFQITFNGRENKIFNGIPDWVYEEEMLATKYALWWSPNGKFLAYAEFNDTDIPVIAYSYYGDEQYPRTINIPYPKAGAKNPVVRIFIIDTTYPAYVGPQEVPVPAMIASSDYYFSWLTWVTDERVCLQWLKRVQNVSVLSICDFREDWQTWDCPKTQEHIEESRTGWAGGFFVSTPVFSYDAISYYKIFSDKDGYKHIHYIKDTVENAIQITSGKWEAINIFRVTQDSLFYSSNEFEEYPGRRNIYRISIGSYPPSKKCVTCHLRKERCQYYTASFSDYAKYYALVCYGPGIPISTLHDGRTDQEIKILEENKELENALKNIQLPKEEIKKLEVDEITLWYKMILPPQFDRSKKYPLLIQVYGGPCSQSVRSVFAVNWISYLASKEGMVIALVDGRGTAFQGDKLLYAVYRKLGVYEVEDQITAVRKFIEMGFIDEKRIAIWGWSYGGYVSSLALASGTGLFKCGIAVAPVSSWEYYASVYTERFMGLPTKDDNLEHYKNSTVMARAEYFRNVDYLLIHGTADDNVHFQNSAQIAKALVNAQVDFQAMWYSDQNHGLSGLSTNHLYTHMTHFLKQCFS
Prolyl endopeptidase, Prolyl Oligopeptidase (hPREP), sequence (P48147 whole entry): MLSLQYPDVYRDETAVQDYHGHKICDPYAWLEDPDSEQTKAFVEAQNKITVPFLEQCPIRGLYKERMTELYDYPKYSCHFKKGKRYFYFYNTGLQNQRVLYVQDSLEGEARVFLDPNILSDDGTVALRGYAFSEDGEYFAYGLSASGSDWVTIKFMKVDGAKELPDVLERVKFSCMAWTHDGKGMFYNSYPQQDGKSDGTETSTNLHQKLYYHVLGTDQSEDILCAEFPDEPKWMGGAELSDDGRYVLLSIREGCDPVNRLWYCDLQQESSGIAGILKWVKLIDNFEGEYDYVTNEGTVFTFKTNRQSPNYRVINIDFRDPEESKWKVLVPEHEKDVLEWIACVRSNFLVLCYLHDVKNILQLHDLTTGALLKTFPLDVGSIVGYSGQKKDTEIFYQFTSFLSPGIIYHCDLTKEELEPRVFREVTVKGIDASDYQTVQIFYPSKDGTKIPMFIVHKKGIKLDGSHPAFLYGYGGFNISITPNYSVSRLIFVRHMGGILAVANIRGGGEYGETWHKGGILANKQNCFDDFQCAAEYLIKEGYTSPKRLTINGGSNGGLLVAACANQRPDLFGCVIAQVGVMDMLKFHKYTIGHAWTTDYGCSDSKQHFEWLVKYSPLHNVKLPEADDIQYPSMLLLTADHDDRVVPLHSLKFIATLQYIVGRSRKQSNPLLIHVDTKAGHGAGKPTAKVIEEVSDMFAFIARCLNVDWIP

Row | SMILES | IC50 [1] [nM] | hFAP Binding assay k(off) (hFAP (M39-A757)) [s⁻¹] | hFAP Binding assay k(on) (hFAP (M39-A757)) [M⁻¹ s⁻¹] | Kd (hFAP (M39-A757)) [nM] | IC50 [2] [nM] | solubility (Kinetic solubility; [5]) [µM] | Papp A→B (Caco-2 cell permeability) [×10⁻⁶ cm/s] | Papp B→A (Caco-2 cell permeability) [×10⁻⁶ cm/s] | efflux ratio (Caco-2 cell permeability) | rHep CLint [3] [μL/min/1E6] | microsomal CLint [4, 6] [µL/min/mg] | Papp (Caco-2 cell permeability) [×10⁻⁶ cm/s] | solubility (Kinetic solubility) [µM] | microsomal CLint [4] [µL/min/mg]
1 | CC1(C)CCCN(c2ccc3nccc(C(=O)NCC(=O)N4CSC[C@H]4C#N)c3c2)C1=O [Example 15, (R)—N-(2-(4-Cyanothiazolidin-3-yl)-2-oxoethyl)-6-(3,3-dimethyl-2-oxopiperidin-1-yl)quinoline-4-carboxamide] | 0.12 | 0.000046 | 490000 | 0.11 | 2100 | 890 (≈ 402 µg/mL) | 0.3 | 13 | 45 | 11 | 43 |  |  | 
2 | COC[C@@H]1CN(c2ccc3nccc(C(=O)NCC(=O)N4CSC[C@H]4C#N)c3c2)CCO1 [Example 93, N-(2-((R)-4-Cyanothiazolidin-3-yl)-2-oxoethyl)-6-((S)-2-(methoxymethyl)-morpholino)quinoline-4-carboxamide] | 0.091 | 0.000080 | 1800000 | 0.047 | 1900 | 300 (≈ 137 µg/mL) | 0.33 | 17 | 50 | 2.6 | < 3 |  |  | 
3 | N#C[C@@H]1CSCN1C(=O)CNC(=O)c1ccnc2ccc(N3CC4CCC(C3)O4)cc12 [Example 79, 6-(8-Oxa-3-azabicyclo[3.2.1]octan-3-yl)-N-(2-((R)-4-cyanothiazolidin-3-yl)-2-oxoethyl)quinoline-4-carboxamide] | 0.043 | 0.00012 | 16000000 | 0.018 | 630 | 610 (≈ 267 µg/mL) | 1.1 | 33 | 29 | 6.2 | 21 |  |  | 
4 | C[C@]1(F)CCN(c2ccc3nccc(C(=O)NCC(=O)N4CSC[C@H]4C#N)c3c2)C1 (mixture of isomers) [Example 198, N-(2-((R)-4-Cyanothiazolidin-3-yl)-2-oxoethyl)-6-((RS)-3-fluoro-3-methylpyrrolidin-1-yl)quinoline-4-carboxamide] | 0.056 | 0.00011 | 2900000 | 0.038 | 410 | 38 | 3.4 | 36 | 11 | 22 | 20 |  |  | 
5 | C[C@@H]1CCN(c2ccc3nccc(C(=O)NCC(=O)N4CSC[C@H]4C#N)c3c2)C1=O (single isomer, unassigned) [Example 202, N-(2-((R)-4-Cyanothiazolidin-3-yl)-2-oxoethyl)-6-((R*)-3-methyl-2-oxopyrrolidin-1-yl)quinoline-4-carboxamide] | 0.044 | 0.000070 | 1600000 | 0.043 | 550 | 140 (≈ 59.3 µg/mL) |  |  |  | <1 | 7.7 | 5.2 |  | 
6 | N#C[C@@H]1CSCN1C(=O)CNC(=O)c1ccnc2ccc(N3CCC(=O)CC3)cc12 [Example 230, (R)—N-(2-(4-cyanothiazolidin-3-yl)-2-oxoethyl)-6-(4-oxopiperidin-1-yl)quinoline-4-carboxamide] | 0.078 |  |  |  | 600 | > 1000 | 34 | 17 |  | 2.8 | < 3 | 2 |  | 
7 | CC1(O)CN(c2ccc3nccc(C(=O)NCC(=O)N4CSC[C@H]4C#N)c3c2)C1 [Example 165, (R)—N-(2-(4-Cyanothiazolidin-3-yl)-2-oxoethyl)-6-(3-hydroxy-3-methyl-azetidin-1-yl)quinoline-4-carboxamide] | 0.32 | 0.000063 | 1200000 | 0.051 | 670 | > 1000 |  |  |  | <1 | < 3 | 0.51 |  | 
8 | N#C[C@@H]1CSCN1C(=O)CNC(=O)c1ccnc2ccc(N3CC(F)(F)OC(F)(F)C3)cc12 [Example 5, (R)—N-(2-(4-Cyanothiazolidin-3-yl)-2-oxoethyl)-6-(2,2,6,6-tetrafluoromorpholino)quinoline-4-carboxamide] | 0.06 |  |  | 0.049 | 220 | 11 (≈ 5.32 µg/mL) | 1.9 | 32 | 17 | 32 | 93 |  |  | 
9 | COC[C@@H]1[C@@H](C)OCCN1c1ccc2nccc(C(=O)NCC(=O)N3CSC[C@H]3C#N)c2c1 [Example 97, N-(2-((R)-4-Cyanothiazolidin-3-yl)-2-oxoethyl)-6-((2R,3R)-3-(methoxymethyl)-2-methylmorpholino)quinoline-4-carboxamide] | 0.23 | 0.000076 | 690000 | 0.11 | 890 | 950 (≈ 446 µg/mL) | 0.52 | 23 | 45 | 19 | 32 |  |  | 
10 | N#C[C@@H]1CSCN1C(=O)CNC(=O)c1ccnc2ccc(N3CC4(CC(F)C4)C3)cc12 [Example 155, (R)—N-(2-(4-Cyanothiazolidin-3-yl)-2-oxoethyl)-6-(6-fluoro-2-azaspiro[3.3]heptan-2-yl)quinoline-4-carboxamide] | 0.086 | 0.000050 | 3100000 | 0.016 | 380 |  | 4.2 | 27 | 6.5 | 3.2 |  |  | 400 (≈ 176 µg/mL) | 19
11 | N#C[C@@H]1CSCN1C(=O)CNC(=O)c1ccnc2ccc(N3C[C@H](O)C(F)(F)C3)cc12 (mixture of isomers) [Example 224, N-(2-((R)-4-Cyanothiazolidin-3-yl)-2-oxoethyl)-6-((RS)-3,3-difluoro-4-hydroxypyrrolidin-1-yl)quinoline-4-carboxamide] | 0.073 | 0.000068 | 3000000 | 0.023 | 670 | 50 |  |  |  | <1 | < 3 | 1.2 |  | 
12 | C[C@@]1(O)CCN(c2ccc3nccc(C(=O)NCC(=O)N4CSC[C@H]4C#N)c3c2)C1 [Example 167, N-(2-((R)-4-Cyanothiazolidin-3-yl)-2-oxoethyl)-6-((R)-3-hydroxy-3-methylpyrrolidin-1-yl)quinoline-4-carboxamide] | 0.091 |  |  |  | 1000 | 240 (≈ 102 µg/mL) | 0.13 | 9.5 | 74 | <1 | < 3 |  |  | 
